Test results taken from patent publication US20240099214A1, “PLANT DEFENCE GENE EXPRESSION” (UPL Corporation Limited, priority 2021, published 2024).
“Also recorded” adds a separate entry of the source.

Columns and labels:
Assay type in all cases: in vivo, Tomato ecotype corbarino
set of defense genes = assay: qRT-PCR gene expression of the set of tested defence genes in tomato leaves (relative to a-tubulin, compared to water treatment); conditions: for gene expression of the set of defense genes compared to TSWV treatment: 48 hours from the treatment, tomato leaves
Protocol: (§1) Tomato ecotype “corbarino” reported to be susceptible to TSWV infection was used in the experiment. Plants were grown in pots in a climatic chamber with a photoperiod of 16/8 hour at 25° C.
(§2) The viral strain (TSWV PV PV-0393) was utilized in the experiment. The virus was mechanically inoculated and propagated on tomato “corbarino”. The inoculum was prepared in an ice-cooled mortar grounding 1 gr of infected tomato tissue in 10 ml of Na-phosphate buffer 0.01M. The fresh prepared inoculum was stored in ice before use. Tomato plants at BBCH16 were dusted with Carborundum 600 mesh and selected leaves were rubbed with some droplets of inoculum. After 5 min. plants were sprayed with sterile water to remove the excess of inoculum and preserve the cell turgor.
(§3) Four treatments were compared: i) Mock inoculated; ii) TSWV; iii) 0.25% Laminarin; iv) 0.25% Laminarin+TSWV. In the last treatment the virus was inoculated 24 hrs after the laminarin application.
Total RNA was extracted from systemic infected tomato leaves by using the Quick-RNA Plant Kit (Zymo Research) following the manufacturer instructions. […] The RNA concentration was quantified by measuring the absorbance at 260 nm using a Nanodrop 2000 (Thermofisher). The purity of all of the RNA samples was assessed at an absorbance ratio of OD260/280 and OD260/230, while its structural integrity was checked by agarose gel electrophoresis. […]
qPCR reactions were performed with BioRad (Applied Biosystems, Foster City, CA, USA) using SYBR R Green. […] Reactions were run using the cycling parameter described previously (Reid et al., 2006) and the qPCR data were analyzed by the Ct method (Pfaffl, 2001). In order to analyze the qPCR data, a-tubulin gene was used as housekeeping to determine the relative expression level of the other genes analyzed in this work. […] The corresponding qPCR efficiencies (E) were calculated for every primer pair with the software 7300 System SDS software (Applied Biosystems, Foster City, CA, USA) according to the equation E=(10−1/slope−1)×100 (Rutledge and Stewart, 2008). […]

[1] = test system: Avr/Cf9 rapidly elicited protein 75 (gene 5, Solyc11g010250.1); assay: qRT-PCR expression of gene 5 in tomato leaves; set-up: key: relative expression normalized to a-tubulin housekeeping gene
Protocol: as §1, §2, §3
(§4) Total RNA was extracted from systemic infected tomato leaves by using the Quick-RNA Plant Kit (Zymo Research) following the manufacturer instructions. The extractions were carried out using three plants after 12 h, 24 h, 48 h, 72 h, 7 days after inoculation. Leaves were instantly frozen in liquid nitrogen after cutting to avoid any deterioration of the sample as well as any defense reaction. The RNA concentration was quantified by measuring the absorbance at 260 nm using a Nanodrop 2000 (Thermofisher). The purity of all of the RNA samples was assessed at an absorbance ratio of OD260/280 and OD260/230, while its structural integrity was checked by agarose gel electrophoresis. Only high-quality RNA with OD 260/280 and OD 260/230>2 was used for subsequent steps. Single-stranded cDNA was synthesized from 1 μg of total RNA using an iScript™ Select cDNA Synthesis Kit and random hexamers as primers (Bio-Rad, Milan, Italy), according to the manufacturer's instructions. Three biological replicates were created from the 3 leaves collected to test 15 genes. Alpha tubulin was used as reference gene.
(§5) qPCR reactions were performed with BioRad (Applied Biosystems, Foster City, CA, USA) using SYBR R Green. Each reaction was performed in 20 μl containing 10 μl of 2× Power SYBR Green PCR Master Mix (Life Technologies), 0.2-0.3 μM primers and cDNA samples diluted 1:20. Each qPCR reaction was performed in triplicate. Reactions were run using the cycling parameter described previously (Reid et al., 2006) and the qPCR data were analyzed by the Ct method (Pfaffl, 2001). In order to analyze the qPCR data, a-tubulin gene was used as housekeeping to determine the relative expression level of the other genes analyzed in this work. For the determination of qPCR efficiency of each primer pairs, a standard curve was performed using the following cDNA dilutions: 1:4, 1:16, 1:64; 1:256 and 1:1024. Every measurement was made in triplicate. The corresponding qPCR efficiencies (E) were calculated for every primer pair with the software 7300 System SDS software (Applied Biosystems, Foster City, CA, USA) according to the equation E=(10−1/slope−1)×100 (Rutledge and Stewart, 2008).
(§6) The significance of the differences between the gene expressions levels were compared by one-way ANOVA (p=0.01) and the means were separated by Tukey post-hoc test using SPSS ver.26 ([…]).

[2] = test system: Regulator of gene silencing (gene 14, AY642285.1); assay: qRT-PCR expression of gene 14 in tomato leaves; set-up: key to RQ1 / RQ2 / RQ3 / RQ mean: relative expression normalized to a-tubulin housekeeping gene; conditions: for gene 14 expression compared to TSWV treatment: 48 hr; for gene 14 expression: 72 hr
Protocol: as §1, §2, §3, §4, §5, §6

[3] = Gene_14, 12 hr, treatment Laminarin
[4] = Gene_14, 12 hr, treatment Laminarin + virus
[5] = Gene_14, 24 hr, treatment Laminarin
[6] = Gene_14, 24 hr, treatment Laminarin + virus
[7] = Gene_14, 48 hr, treatment Laminarin
[8] = Gene_14, 48 hr, treatment Laminarin + virus
[9] = Gene_14, 72 hr, treatment Laminarin
[10] = Gene_14, 72 hr, treatment Laminarin + virus

In the case of laminarin, the “gene expression of the set of defense genes compared to TSWV treatment” value (set of defense genes; 0.25% laminarin + TSWV inoculated 24 hrs after laminarin application) is reported as “activates the set of defense genes at higher level compared to TSWV”, the “gene expression of the set of defense genes compared to TSWV treatment” value (set of defense genes; 0.25% laminarin alone) is reported as “activates the set of defense genes at higher level compared to TSWV” and the “gene expression of the tested genes, overall” value (set of defense genes; 72 hr) is reported as “clear evidence of the laminarin effects”. It also gave an RQ1 ([1]; 12 hr, Laminarin + virus) of 0.8046, an RQ2 ([1]; 12 hr, Laminarin + virus) of 10.612 and an RQ3 ([1]; 12 hr, Laminarin + virus) of 11.537. It also gave an RQ mean ([1]; 12 hr, Laminarin + virus) of 10.065, an RQ1 ([1]; 12 hr, Laminarin alone) of 0.7901 and an RQ2 ([1]; 12 hr, Laminarin alone) of 11.285. It also gave an RQ3 ([1]; 12 hr, Laminarin alone) of 0.9408, an RQ mean ([1]; 12 hr, Laminarin alone) of 0.9531 and an RQ1 ([1]; 24 hr, Laminarin + virus) of 10.601. For the same substance, the RQ2 ([1]; 24 hr, Laminarin + virus) was 12.023, the RQ3 ([1]; 24 hr, Laminarin + virus) was 0.9700 and the RQ mean ([1]; 24 hr, Laminarin + virus) was 10.775. The RQ1 ([1]; 24 hr, Laminarin alone) was 11.135, the RQ2 ([1]; 24 hr, Laminarin alone) was 12.189 and the RQ3 ([1]; 24 hr, Laminarin alone) was 0.9994. The RQ mean ([1]; 24 hr, Laminarin alone) was 11.106, the RQ1 ([1]; 48 hr, Laminarin + virus) was 0.8610 and the RQ2 ([1]; 48 hr, Laminarin + virus) was 13.586. The RQ3 ([1]; 48 hr, Laminarin + virus) was 10.405, the RQ mean ([1]; 48 hr, Laminarin + virus) was 10.867 and the RQ1 ([1]; 48 hr, Laminarin alone) was 0.9204. The RQ2 ([1]; 48 hr, Laminarin alone) was 12.321, the RQ3 ([1]; 48 hr, Laminarin alone) was 10.531 and the RQ mean ([1]; 48 hr, Laminarin alone) was 10.685. The RQ1 ([1]; 72 hr, Laminarin + virus) was 17.401, the RQ2 ([1]; 72 hr, Laminarin + virus) was 30.624 and the RQ3 ([1]; 72 hr, Laminarin + virus) was 25.095. It also gave an RQ mean ([1]; 72 hr, Laminarin + virus) of 24.373, an RQ1 ([1]; 72 hr, Laminarin alone) of 22.196 and an RQ2 ([1]; 72 hr, Laminarin alone) of 23.867. The RQ3 ([1]; 72 hr, Laminarin alone) was 23.473, the RQ mean ([1]; 72 hr, Laminarin alone) was 23.179 and the “gene 14 expression compared to TSWV treatment” value ([2]; 0.25% laminarin + TSWV inoculated 24 hrs later) was “inverted”. For the same substance, the “gene 14 expression compared to TSWV treatment” value ([2]; 0.25% laminarin alone) was “inverted”, the “gene 14 expression” value ([2]; Laminarin alone) was “no clear overexpression; also recorded: down regulation” and the “gene 14 expression” value ([2]; laminarin with TSWV) was “down regulation”. It also gave an RQ1 [2, 3] of 12.337, an RQ2 [2, 3] of 10.845 and an RQ3 [2, 3] of 11.390. It also gave an RQ mean [2, 3] of 11.524, an RQ1 [2, 4] of 14.800 and an RQ2 [2, 4] of 14.769. The RQ3 [2, 4] was 10.304, the RQ mean [2, 4] was 13.291 and the RQ1 [2, 5] was 15.741. The RQ2 [2, 5] was 11.640, the RQ3 [2, 5] was 12.032 and the RQ mean [2, 5] was 13.138. It also gave an RQ1 [2, 6] of 10.995, an RQ2 [2, 6] of 12.080 and an RQ3 [2, 6] of 12.197. For the same substance, the RQ mean [2, 6] was 11.758, the RQ1 [2, 7] was 0.3028 and the RQ2 [2, 7] was 0.7177. For the same substance, the RQ3 [2, 7] was 0.5353, the RQ mean [2, 7] was 0.5186 and the RQ1 [2, 8] was 0.5979. The RQ2 [2, 8] was 0.3384, the RQ3 [2, 8] was 0.4902 and the RQ mean [2, 8] was 0.4755. It also gave an RQ1 [2, 9] of 0.2805, an RQ2 [2, 9] of 0.3706 and an RQ3 [2, 9] of 0.3064. For the same substance, the RQ mean [2, 9] was 0.3192, the RQ1 [2, 10] was 0.5857 and the RQ2 [2, 10] was 0.5072. For the same substance, the RQ3 [2, 10] was 0.2692 and the RQ mean [2, 10] was 0.4540.
